Assay results reported in publication PMC10254045, “Elaboration of the Effective Multi-Target Therapeutic Platform for the Treatment of Alzheimer’s Disease Based on Novel Monoterpene-Derived Hydroxamic Acids” (International Journal of Molecular Sciences, 2023).

Assays:
[1] = Oxygen radical absorbance capacity (ORAC); settings: Trolox equivalent; compounds and Trolox 100 µM, AAPH 12 mM
Description: (§1) DPPH is a stable chromogen radical, which is widely used to assess the antioxidant activity of biological objects, in particular when searching for potential therapeutic agents used to maintain the redox balance in the body and treat pathologies associated with the action of free radicals. In turn, the oxygen radical absorbance capacity (ORAC) analysis is based on the removal by potential antioxidants of peroxyl radicals generated by AAPH (2,2’-axobis-2-methyl-propanimidamide, dihydrochloride), preventing the degradation of the fluorescein probe.
The analysis of the absorption capacity of oxygen radicals was performed as described in [151], with some modifications. Trolox (Sigma Aldrich, St. Louis, MI, USA) was used as a standard antioxidant. The studied compounds were introduced into the holes of a 96-hole black tablet with a transparent bottom with Trolox (25 µL; the final concentration was 100 µM) and fluorescein (150 µL; the final concentration was 80 nM, Sigma Aldrich, St. Louis, MI, USA). The resulting mixture was shaken and incubated for 30 min at 37 °C. After a 30-min incubation period, a solution of 2,2’-azobis (2-amidinopropane) dihydrochloride (AAPH) (25 µL; final concentration of 12 mM, Sigma Aldrich, St. Louis, MI, USA) was quickly introduced into all wells of the tablet. The tablet was immediately placed in a multifunctional tablet analyzer Cytation™ 3 (BioTek Instruments, Inc., Winooski, VT, USA). The fluorescence intensity was recorded for 300 min at λex = 480 nm, λem = 520 nm with an interval of every 5 min. In the same experiment, calibration solutions for the reference antioxidant Trolox were used to confirm the validity of the use of this method (0, 6.25, 12.5, 25, 50 and 100 µM).

[2] = DPPH radical scavenging activity; settings: Trolox equivalent; compounds and Trolox 100 µM
Description: as §1
The measurement of the antiradical activity of synthesized hydroxamic acids was carried out using the method described in [150]. The studied compounds were introduced into the wells of a 96-well black tablet (the final concentration was 100 microns), after which a freshly prepared solution of 2,2-diphenyl-1-picrylhydrazyl (Sigma Aldrich, St. Louis, Missouri, USA) was added. After the incubation time had elapsed, the DPPH radical-scavenging activity was measured using a multifunctional Cytation™3 tablet analyzer (BioTek Instruments, Inc., Winooski, VT, USA) at λ = 517 nm by the difference in the reduction of the DPPH radical peak between control samples containing an equivalent volume of solvent and samples with the substances under study.

HDAC6 = biological target: T1, HDAC6 (Homo sapiens, UniProt Q9UBN7); assay: Fluorimetric measurement of HDAC6 activity (FLUOR DE LYS kit); assay type: biochemical; settings: for IC50: Table 1, read-out: HDAC6-Inhibitory Effect, IC50; for ability to inhibit the enzymatic activity of HDAC6: in words
T1 construct: purchased Enzo Life Sciences
T1 sequence (Q9UBN7 1-1215): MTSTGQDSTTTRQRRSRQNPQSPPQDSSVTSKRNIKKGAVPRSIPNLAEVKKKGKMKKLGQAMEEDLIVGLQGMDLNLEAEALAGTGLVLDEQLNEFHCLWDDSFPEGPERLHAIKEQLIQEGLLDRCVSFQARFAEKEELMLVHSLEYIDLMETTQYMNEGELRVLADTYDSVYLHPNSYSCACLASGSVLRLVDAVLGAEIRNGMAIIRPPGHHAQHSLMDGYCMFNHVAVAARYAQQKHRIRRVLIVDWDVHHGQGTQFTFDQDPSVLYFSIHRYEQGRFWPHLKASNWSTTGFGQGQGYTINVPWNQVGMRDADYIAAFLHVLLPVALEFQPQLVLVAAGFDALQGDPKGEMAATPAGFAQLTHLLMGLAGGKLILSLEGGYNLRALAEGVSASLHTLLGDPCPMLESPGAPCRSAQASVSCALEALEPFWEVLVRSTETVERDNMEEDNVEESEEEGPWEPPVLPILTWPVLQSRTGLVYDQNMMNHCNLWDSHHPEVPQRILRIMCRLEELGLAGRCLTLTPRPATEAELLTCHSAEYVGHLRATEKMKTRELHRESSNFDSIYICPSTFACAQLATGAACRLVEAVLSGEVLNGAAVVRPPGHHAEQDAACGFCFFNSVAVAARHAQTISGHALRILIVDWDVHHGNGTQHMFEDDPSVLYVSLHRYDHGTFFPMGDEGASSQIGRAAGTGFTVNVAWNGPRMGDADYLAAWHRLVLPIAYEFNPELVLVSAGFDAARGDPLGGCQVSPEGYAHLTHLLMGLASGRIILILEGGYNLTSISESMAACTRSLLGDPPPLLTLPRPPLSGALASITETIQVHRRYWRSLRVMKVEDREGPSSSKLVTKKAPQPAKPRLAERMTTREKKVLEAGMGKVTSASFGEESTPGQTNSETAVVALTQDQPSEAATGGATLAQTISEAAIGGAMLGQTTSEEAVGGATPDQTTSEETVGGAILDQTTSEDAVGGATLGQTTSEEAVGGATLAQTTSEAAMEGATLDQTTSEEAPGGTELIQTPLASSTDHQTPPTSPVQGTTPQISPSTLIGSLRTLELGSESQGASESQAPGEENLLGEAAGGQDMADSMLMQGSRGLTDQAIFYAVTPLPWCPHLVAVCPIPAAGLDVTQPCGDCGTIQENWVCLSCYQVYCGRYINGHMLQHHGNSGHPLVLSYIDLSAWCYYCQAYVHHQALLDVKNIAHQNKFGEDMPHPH

Cell viability, MTT test = assay type: cell-based; settings: human, SH-SY5Y neuroblastoma cells, 24-h exposure, read-out: IC50 cytotoxic action
Description: The culture of human neuroblastoma cells (defined as SH-SY5Y) was cultured in DMEM with the addition of embryonic bovine serum (10%), 2 mM glutamine (DiaM, Moscow, Russia) and penicillin-streptomycin (100 U/Ml–100 µg/mL, PanEco, Moscow, Russia) in conditions of 5% CO2 in the air at 37 °C. Upon reaching 80% confluence, cells in the amount of 1 × 10^4 were placed in 96-well transparent plates and incubated under the same conditions for 24 h. After the incubation time, the cells were exposed to a 24-h exposure to various concentrations of hydroxamic acids dissolved in dimethyl sulfoxide (range from 1 to 100 µM). An equivalent volume of solvent was used as a control (final DMSO content = 1%).
Cell survival analysis was performed using MTT test. To do this, 3-(4,5-dimethylthiazol-2-yl)-2,5-diphenyltetrazolium bromide (MTT, 5 mg/mL, DiaM, Moscow, Russia) was introduced into all wells and incubated at 37 °C for 2 h to restore metabolically active cells of the yellow tetrazolium salt MTT to purple formazane crystals. The resulting formazane was then re-suspended in 200 µL DMSO per well. The optical density was recorded using a multifunctional Cytation™3 flatbed analyzer (BioTek Instruments, Inc., Winooski, VT, USA) at λ = 530 nm.

[3] = biological target: T2, β-amyloid peptide 1-42 (Aβ1-42) (Homo sapiens, UniProt P05067); assay: Thioflavin T fluorescent analysis of Aβ1-42 aggregation; assay type: biochemical; settings: 48 h, compounds 100 µM, Thioflavin T 10 µM, 48 h registration; read-out: prevention of the aggregation of Aβ1-42
T2 construct: the pathological form of β-amyloid peptide 1-42 (Sigma Aldrich); purchased Sigma Aldrich
T2 sequence (P05067 672-713 limits assumed): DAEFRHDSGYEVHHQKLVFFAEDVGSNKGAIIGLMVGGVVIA
Description: The aggregation process of β-amyloid peptide 1-42 (Aβ1-42), caused by hydrophobic interactions of peptide monomers and, as a consequence, the formation of the most toxic polymorphic structure-oligomeric fragments of Aβ, was detected using the fluorescent dye Thioflavin T (Figure 4a). This method is the most widely used for selective staining and the identification of amyloid aggregates, which is confirmed by a large number of works. Fluorescence analysis using Thioflavin T made it possible to monitor the aggregation process of the pathological form of β-amyloid peptide 1-42 (Sigma Aldrich, St. Louis, MI, USA). The experimental protocol was carried out similarly to that described in [58] with some modifications. The registration of changes in the fluorescence of thioflavin T (10 µM, Sigma Aldrich, St. Louis, MI, USA) was performed on a multifunctional tablet analyzer Cytation™3 (BioTek Instruments, Inc., Winooski, VT, USA) at λex = 450 nm, λem = 480 nm. The fluorescence intensity of the solution without Aβ1-42 was subtracted from the fluorescence values of solutions containing protein, due to the need to subtract the background fluorescence.

Row | SMILES | IC50 (HDAC6) [µM] | ability to inhibit the enzymatic activity of HDAC6 (HDAC6) | melting point [°C] | inhibition at 100 µM [3] [%] | ORAC value (TE) [1] [TE] | DPPH value (TE) [2] [TE] | IC50 at 24 h (Cell viability, MTT test) [µM]
1 | CC1=CC[C@@H](CC(=O)NO)C1(C)C [(+)-13, (S)-N-Hydroxy-2-(2,2,3-trimethylcyclopent-3-en-1-yl)acetamide] | > 100 | no significant ability | – | – | 0.94 | 0.26 | > 100
2 | CC1(C)[C@@H]2CC=C(C(=O)NO)[C@H]1C2 [(+)-19, (1S,5R)-N-Hydroxy-6,6-dimethylbicyclo [3.1.1]hept-2-ene-2-carboxamide] | > 100 | no significant ability | – | – | 1.02 | 0.50 | > 100
3 | CC1=CC[C@H](CC(=O)NO)C1(C)C [(-)-13, (R)-N-Hydroxy-2-(2,2,3-trimethylcyclopent-3-en-1-yl)acetamide] | > 100 | no significant ability | – | – | 0.93 | 0.39 | > 100
4 | CC1(C)[C@H]2CC=C(C(=O)NO)[C@@H]1C2 [(-)-19, (1R,5S)-N-Hydroxy-6,6-dimethylbicyclo [3.1.1]hept-2-ene-2-carboxamide] | > 100 | no significant ability | – | – | 0.85 | 0.15 | > 100
5 | CC(CCCC(C)(C)O)CC(=O)NO (stereo not shown) [Compound 5, N,7-dihydroxy-3,7-dimethyloctanamide] | > 100 | no significant ability | – | – | 0.88 | 0.17 | > 100
6 | CC(C)CCCC(C)CC(=O)NO (stereo not shown) [Compound 8, N-Hydroxy-3,7-dimethyloctanamide] | > 100 | no significant ability | – | – | 0.83 | 0.36 | > 100
7 | CC(C)=CCCC(C)CC(=O)NO (stereo not shown) [Compound 10, N-Hydroxy-3,7-dimethyloct-6-enamide] | > 100 | no significant ability | – | – | 0.84 | 0.19 | > 100

More lines, main results first:

Row | IC50 (HDAC6) [µM] | ability to inhibit the enzymatic activity of HDAC6 (HDAC6) | melting point [°C] | inhibition at 100 µM [3] [%] | SMILES | ORAC value (TE) [1] [TE] | DPPH value (TE) [2] [TE] | IC50 at 24 h (Cell viability, MTT test) [µM]
8 | 87.4 ± 2.33 | no significant ability | – | – | C=C(C)[C@@H]1CC=C(C(=O)NO)CC1 [Compound 16, (S)-N-Hydroxy-4-(prop-1-en-2-yl)cyclohex-1-enecarboxamide] | 0.87 | 0.23 | > 100
9 | 0.56 ± 0.01 | – | 113.5 to 116 | ≤ 40 | C=C(C)[C@@H]1CC=C(CNC(=O)CCCCCCC(=O)NO)CC1 [Compound 30, (S)-N1-Hydroxy-N8-((4-(prop-1-en-2-yl)cyclohex-1-en-1-yl)methyl)octanediamide] | 0.87 | 0.25 | > 100
10 | 0.74 ± 0.02 | – | 110.8 | ≤ 40 | C=C(C)[C@@H]1CC=C(CNC(=O)CCCCCCCC(=O)NO)CC1 [Compound 31, (S)-N1-hydroxy-N9-((4-(prop-1-en-2-yl)cyclohex-1-en-1-yl)methyl)nonanediamide] | 0.82 | 0.30 | 89.4 ± 3.92
11 | 8.23 ± 0.4 | – | 187.4 to 189.7 | 59.9 | CC(C)c1ccc(CNC(=O)/C=C/c2ccc(C(=O)NO)cc2)cc1 [Compound 35b, (E)-N-hydroxy-4-(3-((4-isopropylbenzyl)amino)-3-oxoprop-1-en-1-yl)benzamide] | 1.00 | 0.50 | > 100
12 | 6.9 ± 0.43 | – | 139.5 to 141.4 | ≤ 40 | CC1(C)[C@H]2CC[C@@H](CNC(=O)/C=C/c3ccc(C(=O)NO)cc3)[C@@H]1C2 [Compound 35c, 4-((E)-3-((((1S,2R,5S)-6,6-dimethylbicyclo[3.1.1]heptan-2-yl)methyl)amino)-3-oxoprop-1-en-1-yl)-N-hydroxybenzamide] | 1.02 | 0.71 | 86.7 ± 1.45
